In publication PMC5509375, “Oxidative stress induced in E. coli by the human antimicrobial peptide LL-37” (PLoS Pathogens, 2017):
Values after ≈ are worked out from the molar mass of the structure shown. Read-outs that look alike come from different tables or passages of the source. Ends that are not written are not given here.

What was measured:
E. coli MG1655 [1] = test: MIC assay, anaerobic fermentation (oxygen scavenged with PCA/PCD); type: cell-based; settings: E. coli MG1655, EZRDM, 30°C, 6 hr, PCA 10 mM / PCD 100 nM
Description: (§1) We have measured MICs in aerobic and anaerobic fermentation conditions using a series of two-fold dilutions for the four natural AMPs in the same rich, chemically defined EZRDM medium at 30°C (Table 1). The MIC in anaerobic fermentation conditions is 4-fold higher for LL-37 and 8-fold higher for melittin. […] For cecropin A and for indolicidin, the MIC is the same in aerobic and fermentation conditions. Evidently the activity against E. coli of some, but not all, natural AMPs is enhanced by the presence of oxygen. For LL-37, the primary focus of this study, we also measured the MIC in conditions enabling anaerobic respiration (no oxygen, but supplemented with 10 mM KNO3; Table 2).
Anaerobic MIC values (Table 1) were measured on a 96-well plate that was sealed with plastic wrap. Cells were incubated in EZRDM containing protocatechuic acid (PCA) at 10 mM and protocatechuate 3,4-dioxygenase (PCD) at 100 nM to scavenge oxygen. The plate was incubated at 30°C for 6 hr, followed by OD measurements.

E. coli MG1655 [2] = test: MIC assay, broth microdilution, aerobic growth; type: cell-based; settings: E. coli MG1655, EZRDM, 30°C, 6 hr, two-fold serial dilutions, reproducible to the same factor of two
Description: as §1
The aerobic MIC values for the various AMPs (Table 1) were determined using the broth microdilution method as previously described. Two-fold serial dilutions of LL-37 in 1× EZRDM were performed in separate rows of a polystyrene 96-well plate, with each plate containing an inoculum of E. coli MG1655. The inoculum was a 1:20 dilution from a bulk culture at midlog phase (OD600 = 0.5) grown at 30°C. The plate was incubated at 30°C and shaken at 200 rpm in a Lab-Line Orbital Environ Shaker (model 3527) for 6 hr. The MIC value was taken as the lowest concentration for which no growth was discernible (<0.05 OD) after 6 hr.

E. coli MG1655 [3] = test system: E. coli MG1655; set-up: method as in 2 sources, one per row (each row's own in cited_ref): ref 20 = [20]; PMID 25561551; doi:10.1073/pnas.1417703112; 20 Choi H , Yang Z , Weisshaar JC . Single-cell, real-time detection of oxidative stress induced in Escherichia coli by the antimicrobial peptide CM15 . Proc Natl Acad Sci U S A . 2015; 112 ( 3 ): E3 ||| ref 22 = [22]; PMID 26493221; doi:10.1021/acschembio.5b00547; 22 Choi H , Chakraborty S , Liu R , Gellman SH , Weisshaar JC . Single-Cell, Time-Resolved Antimicrobial Effects of a Highly Cationic, Random Nylon-3 Copolymer on Live Escherichia coli . ACS Chem Biol; settings: cited from earlier work
E. coli MG1655 [4] = settings: cited from earlier work
Description: Table 1 Antimicrobial peptides and their MICs for E. coli MG1655 in aerobic growth vs anaerobic fermentation in EZRDM at 30°C. | column: MIC (μM) ^1 / Aerobic || Additional evidence that the onset of strong CellROX* fluorescence coincides with entry of LL-37 into the periplasm comes from two-color imaging experiments using CellROX Green and a red fluorescent variant of the peptide, Rh-LL-37. […] Under aerobic growth conditions, at t = 0 we flowed 25 μM CellROX Green plus 8 μM Rh-LL-37 across plated E. coli cells. As before, wea ... || To test for the importance of LL-37 stereochemistry on the magnitude of oxidative effects, we repeated the CellROX* assay in aerobic conditions using 4 μM of the all-D stereoisomer of LL-37. […] In addition, our earlier work found the same MIC for D- and L-LL-37 [19].

MG1655 E. coli = type: cell-based; settings: 8 μM Rh-LL-37 + 25 μM CellROX Green, aerobic, 59 cells from three repeats

## CC[C@H](C)[C@H](N)C(=O)N[C@@H](CC(C)C)C(=O)N1CCC[C@H]1C(=O)N[C@@H](Cc1c[nH]c2ccccc12)C(=O)N[C@@H](CCCCN)C(=O)N[C@@H](Cc1c[nH]c2ccccc12)C(=O)N1CCC[C@H]1C(=O)N[C@@H](Cc1c[nH]c2ccccc12)C(=O)N[C@@H](Cc1c[nH]c2ccccc12)C(=O)N1CCC[C@H]1C(=O)N[C@@H](Cc1c[nH]c2ccccc12)C(=O)N[C@@H](CCCNC(=N)N)C(=O)N[C@@H](CCCNC(=N)N)C(N)=O [Indolicidin]
E. coli MG1655 [1]
  MIC (μM) Fermentation: 32 µM (≈ 61 µg/mL)
E. coli MG1655 [2]
  MIC (μM) Aerobic: 32 µM (≈ 61 µg/mL)

## CM15
E. coli MG1655 [3]; E. coli MG1655, EZRDM, 30°C, anaerobic fermentation, CM15 from earlier study
  MIC (μM) Fermentation: 100 µM
E. coli MG1655 [3]; E. coli, fold higher in anaerobic
  MIC in anaerobic (fermentation) relative to aerobic growth: 20 fold
E. coli MG1655 [4]; E. coli MG1655, EZRDM, 30°C, aerobic, CM15 from earlier study
  MIC (μM) Aerobic: 5 µM

## KWKLFKKIEKVGQNIRDGIIKAGPAVAVVGQATQIAK-NH2 [Cecropin A]
E. coli MG1655 [1]
  MIC (μM) Fermentation: 0.9 µM
E. coli MG1655 [2]
  MIC (μM) Aerobic: 0.9 µM

## Rhodamine B-LL-37 [Rh-LL-37]
MG1655 E. coli
  Timing of CellROX* fluorescence relative to periplasmic Rh-LL-37 fluorescence: rise on the same time scale
E. coli MG1655 [4]; MG1655 E. coli
  MIC compared with unlabeled L-LL-37: the same MIC
